Reference: patent US20230382925A1, “MODULATORS OF CYSTIC FIBROSIS TRANSMEMBRANE CONDUCTANCE REGULATOR” (VERTEX PHARMACEUTICALS INCORPORATED, priority 2020, published 2023)
Where “and” joins values, the source holds several entries; their conditions need not be identical. Identical values can stand only once. Like-named read-outs stand apart in the source and are kept apart here.

Legend:
[1] = amide bond, 13-membered ring, DMF
CFTR [2] = target: CFTR (Homo sapiens, UniProt P13569); experiment: Membrane Potential Dye, Enteroid Assay B; format: cell-based
Sequence of CFTR (Homo sapiens, UniProt P13569) (P13569 with tags, fused parts or gaps DEL508-508): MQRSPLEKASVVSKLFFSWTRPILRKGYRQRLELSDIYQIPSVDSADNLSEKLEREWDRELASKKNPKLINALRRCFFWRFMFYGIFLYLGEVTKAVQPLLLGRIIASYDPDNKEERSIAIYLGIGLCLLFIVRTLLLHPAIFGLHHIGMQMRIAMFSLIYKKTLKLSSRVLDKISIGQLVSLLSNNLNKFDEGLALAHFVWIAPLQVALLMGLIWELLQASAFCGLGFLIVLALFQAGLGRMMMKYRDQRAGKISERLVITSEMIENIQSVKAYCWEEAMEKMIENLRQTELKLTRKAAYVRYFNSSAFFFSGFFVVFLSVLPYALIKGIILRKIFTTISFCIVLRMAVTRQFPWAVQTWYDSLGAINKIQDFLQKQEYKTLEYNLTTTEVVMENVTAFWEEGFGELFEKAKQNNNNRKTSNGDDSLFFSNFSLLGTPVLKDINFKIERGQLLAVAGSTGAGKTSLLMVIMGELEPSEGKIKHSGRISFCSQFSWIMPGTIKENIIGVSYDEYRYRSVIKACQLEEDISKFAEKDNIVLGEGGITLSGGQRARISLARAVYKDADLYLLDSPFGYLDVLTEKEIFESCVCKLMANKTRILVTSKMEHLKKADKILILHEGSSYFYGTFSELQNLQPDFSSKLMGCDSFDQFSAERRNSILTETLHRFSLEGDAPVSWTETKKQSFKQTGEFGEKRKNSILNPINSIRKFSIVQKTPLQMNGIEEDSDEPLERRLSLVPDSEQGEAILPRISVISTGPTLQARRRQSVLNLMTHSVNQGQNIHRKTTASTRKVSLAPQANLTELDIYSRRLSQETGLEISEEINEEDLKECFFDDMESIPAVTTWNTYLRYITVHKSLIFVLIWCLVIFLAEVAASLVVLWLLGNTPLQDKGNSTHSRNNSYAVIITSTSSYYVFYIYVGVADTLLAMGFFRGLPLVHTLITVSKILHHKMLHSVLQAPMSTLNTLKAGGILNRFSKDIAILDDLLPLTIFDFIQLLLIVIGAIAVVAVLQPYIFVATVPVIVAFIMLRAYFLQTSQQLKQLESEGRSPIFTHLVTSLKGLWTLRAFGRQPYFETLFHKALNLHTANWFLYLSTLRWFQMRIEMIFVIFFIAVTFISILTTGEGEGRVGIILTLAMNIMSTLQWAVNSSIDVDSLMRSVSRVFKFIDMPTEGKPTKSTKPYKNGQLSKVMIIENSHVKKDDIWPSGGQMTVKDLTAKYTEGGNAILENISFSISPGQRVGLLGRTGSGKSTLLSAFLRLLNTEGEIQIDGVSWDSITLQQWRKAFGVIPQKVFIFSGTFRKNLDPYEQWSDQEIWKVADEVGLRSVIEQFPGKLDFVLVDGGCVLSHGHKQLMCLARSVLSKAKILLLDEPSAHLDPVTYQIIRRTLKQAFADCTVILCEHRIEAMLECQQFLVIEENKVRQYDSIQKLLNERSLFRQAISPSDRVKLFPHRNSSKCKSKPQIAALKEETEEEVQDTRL
How it was run: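 Activity given as % of a triple-combination reference (1 μM and 3 μM correctors, 300 nM acute potentiator). Enteroids were preincubated 18-24 h with compound; chloride efflux then measured 15 min by methyl oxonol fluorescence after forskolin/IBMX/Compound III stimulation in chloride-free buffer containing CaCCinh-A01 and Chicago Sky Blue.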

CFTR [3] = target: T1, CFTR (Homo sapiens, UniProt P13569, DEL508-508); experiment: HBE assay: Ussing chamber assay of CFTR-mediated short-circuit currents (F508del/MF-HBE, with 1 μM Ivacaftor); format: cell-based; conditions: F508del/MF-HBE cells, 18-24 hours, 20% human serum; for EC50: range of concentrations with 1 μM Ivacaftor; for HBE Max Activity: with 1 μM Ivacaftor, compared to known Vertex corrector with 18 μM Tezacaftor and 1 μM Ivacaftor
T1 construct: human bronchial epithelial (HBE) cells derived from CF subjects heterozygous for F508del; endogenous in cells; host or cells: primary human bronchial epithelial cells from CF subjects (F508del/MF-HBE)
T1 sequence (P13569 with tags, fused parts or gaps DEL508-508): as above
Description: 1. Ussing Chamber Assay of CFTR-mediated short-circuit currents
Ussing chamber experiments were performed using human bronchial epithelial (HBE) cells derived from CF subjects heterozygous for F508del and a minimal function CFTR mutation (F508del/MF-HBE) and cultured as previously described (Neuberger T, Burton B, Clark H, Van Goor F Methods Mol Biol 2011:741:39-54). After four days the apical media was removed, and the cells were grown at an air liquid interface for >14 days prior to use.
To isolate the CFTR-mediated short-circuit (ISC) current, F508del/MF-HBE grown on Costar® Snapwell™ cell culture inserts were mounted in an Ussing chamber and the transepithelial ISC was measured under voltage-clamp recording conditions (Vhold=0 mV) at 37° C. The basolateral solution contained (in mM) 145 NaCl, 0.83 K2HPO4, 3.3 KH2PO4, 1.2 MgCl2, 1.2 CaCl2), 10 Glucose, 10 HEPES (pH adjusted to 7.4 with NaOH) and the apical solution contained (in mM) 145 NaGluconate, 1.2 MgCl2, 1.2 CaCl2), 10 glucose, 10 HEPES (pH adjusted to 7.4 with NaOH) and 30 μM amiloride to block the epithelial sodium channel. Forskolin (20 μM) was added to the apical surface to activate CFTR, followed by apical addition of a CFTR inhibitor cocktail consisting of BPO, GlyH-101, and CFTR inhibitor 172 (each at 20 μM final assay concentration) to specifically isolate CFTR currents. The CFTR-mediated ISC (μA/cm^2) for each condition was determined from the peak forskolin response to the steady-state current following inhibition.
2. Identification of Corrector Compounds
The activity of the CFTR corrector compounds on the CFTR-mediated ISC was determined in Ussing chamber studies as described above. The F508del/MF-HBE cell cultures were either incubated with the corrector compounds at a range of concentrations in combination with 1 μM Ivacaftor or were incubated with the corrector compounds at a single fixed concentration of 10 μM in combination with 1 μM Ivacaftor for 18-24 hours at 37° C. and in the presence of 20% human serum. The concentration of corrector compounds with 1 μM Ivacaftor during the 18-24 hours incubations was kept constant throughout the Ussing chamber measurement of the CFTR-mediated ISC to ensure compounds were present throughout the entire experiment.

[4] = Table 10, read-out: Ent. B EC50

SMILES: COC(=O)C1CC2(C1)CC(N1C(=O)c3cccc(c3)S(=O)(=O)Nc3nc(cc(-c4c(C)cccc4C)n3)OC[C@H]1CC1(C(F)(F)F)CC1)C2 (stereo partly drawn)
- ring closure, yield after HPLC ([1]; from COC(=O)C1CC2(CC(N[C@@H](COc3cc(-c4c(C)cccc4C)nc(NS(=O)(=O)c4cccc(C(=O)O)c4)n3)CC3(C(F)(F)F)CC3)C2)C1, HATU/TEA, 25.0 °C, 16.0 h, 2 steps): 32%

SMILES: COC1C[C@@H]2CC(N3C(=O)c4cccc(c4)S(=O)(=O)Nc4nc(cc(-c5c(C)cccc5C)n4)OC[C@H]3CC(C)C)C[C@@H]2C1 (stereo partly drawn)
- ring closure, yield after HPLC ([1]; from COC1C[C@H]2CC(N[C@@H](COc3cc(-c4c(C)cccc4C)nc(NS(=O)(=O)c4cccc(C(=O)O)c4)n3)CC(C)C)C[C@H]2C1, COMU/DIEA, 29.7 mM, 14.0 h): 30%

SMILES: Cc1cccc(C)c1-c1cc2cc(n1)NS(=O)(=O)c1cccc(c1)C(=O)N(C1CC3(CCN(C(=O)OC(C)(C)C)CC3)C1)[C@H](CC(C)C)CO2
- ring closure, yield after HPLC ([1]; from Cc1cccc(C)c1-c1cc(OC[C@@H](CC(C)C)NC2CC3(CCN(C(=O)OC(C)(C)C)CC3)C2)cc(NS(=O)(=O)c2cccc(C(=O)O)c2)n1, HATU/DIEA, 34.7 mM, 14.0 h): 16%

SMILES: Cc1cccc(C)c1-c1cc2nc(n1)NS(=O)(=O)c1cccc(c1)C(=O)N(C1CC(C(=O)OC(C)(C)C)C1)[C@H](CC(C)C)CO2 (stereo partly drawn)
- ring closure, yield after HPLC ([1]; from Cc1cccc(C)c1-c1cc(OC[C@@H](CC(C)C)NC2CC(C(=O)OC(C)(C)C)C2)nc(NS(=O)(=O)c2cccc(C(=O)O)c2)n1, HATU/DIEA, 16.0 h, 2 steps): 79%

SMILES: Cc1cccc(C)c1-c1cc2nc(n1)NS(=O)(=O)c1cccc(c1)C(=O)N(C1CC(CNC(=O)OC(C)(C)C)C1)[C@H](CC(C)C)CO2 (stereo partly drawn)
- ring closure, yield after HPLC ([1]; from Cc1cccc(C)c1-c1cc(OC[C@@H](CC(C)C)NC2CC(CNC(=O)OC(C)(C)C)C2)nc(NS(=O)(=O)c2cccc(C(=O)O)c2)n1, HATU/DIEA, 7.0 h, 2 steps): 15% and 19%

SMILES: Cc1cccc(C)c1-c1cc2nc(n1)NS(=O)(=O)c1cccc(c1)C(=O)N(C1CC(CO)C1)[C@H](CC(C)C)CO2 (stereo partly drawn)
- ring closure, yield after HPLC ([1]; from Cc1cccc(C)c1-c1cc(OC[C@@H](CC(C)C)NC2CC(CO)C2)nc(NS(=O)(=O)c2cccc(C(=O)O)c2)n1, HATU/DIPEA, 32.3 mM, 1.0 h): 11%

SMILES: Cc1cccc(C)c1-c1cc2nc(n1)NS(=O)(=O)c1cccc(c1)C(=O)N(C1CC(NC(=O)OC(C)(C)C)C1)[C@H](CC(C)C)CO2 (stereo partly drawn)
- ring closure, yield after HPLC ([1]; from Cc1cccc(C)c1-c1cc(OC[C@@H](CC(C)C)NC2CC(NC(=O)OC(C)(C)C)C2)nc(NS(=O)(=O)c2cccc(C(=O)O)c2)n1, HATU/DIPEA, 22.4 mM, 6.0 h, 2 steps): 7% and 6%

SMILES: Cc1cccc(C)c1-c1cc2nc(n1)NS(=O)(=O)c1cccc(c1)C(=O)N(C1CC(OC(C)C)C1)[C@H](CC1(C(F)(F)F)CC1)CO2 (stereo partly drawn)
- ring closure, yield after HPLC ([1]; from Cc1cccc(C)c1-c1cc(OC[C@@H](CC2(C(F)(F)F)CC2)NC2CC(OC(C)C)C2)nc(NS(=O)(=O)c2cccc(C(=O)O)c2)n1, HATU/TEA, 44.0 mM, 16.0 h): 18%

SMILES: Cc1cccc(C)c1-c1cc2nc(n1)NS(=O)(=O)c1cccc(c1)C(=O)N(C1CC3(CC3)C1)C(CC(F)(F)F)CO2 (stereo not drawn)
- ring closure, yield after HPLC ([1]; from Cc1cccc(C)c1-c1cc(OCC(CC(F)(F)F)NC2CC3(CC3)C2)nc(NS(=O)(=O)c2cccc(C(=O)O)c2)n1, HATU/TEA, 18.3 mM, 18.0 h): 15%

SMILES: Cc1cccc(C)c1-c1cc2nc(n1)NS(=O)(=O)c1cccc(c1)C(=O)N(C1CCC1C1CC1)[C@H](CC(C)(C)C)CO2 (stereo partly drawn)
- ring closure, yield after HPLC ([1]; from Cc1cccc(C)c1-c1cc(OC[C@@H](CC(C)(C)C)NC2CCC2C2CC2)nc(NS(=O)(=O)c2cccc(C(=O)O)c2)n1, CDMT/NMM, 25.0 °C, 2 steps): 2%

SMILES: Cc1cccc(C)c1-c1cc2nc(n1)NS(=O)(=O)c1cccc(c1)C(=O)N(C1CN(C(=O)OC(C)(C)C)C(C)(C)C1)[C@H](CC(C)C)CO2 (stereo partly drawn)
- ring closure, yield after HPLC ([1]; from Cc1cccc(C)c1-c1cc(OC[C@@H](CC(C)C)NC2CN(C(=O)OC(C)(C)C)C(C)(C)C2)nc(NS(=O)(=O)c2cccc(C(=O)O)c2)n1, COMU/DIEA, 2 steps): 8% and 4%

SMILES: Cc1cccc(C)c1-c1cc2nc(n1)NS(=O)(=O)c1cccc(n1)C(=O)N(C1CC3(C1)CC(C(C)(C)O)C3)[C@H](CC(C)(C)C)CO2 (stereo partly drawn)
- ring closure, yield after HPLC ([1]; from Cc1cccc(C)c1-c1cc(OC[C@@H](CC(C)(C)C)NC2CC3(C2)CC(C(C)(C)O)C3)nc(NS(=O)(=O)c2cccc(C(=O)O)n2)n1, HATU/DIEA, 26.7 mM, 25.0 °C, 17.0 h): 28%

SMILES: COCCn1cc(N2C(=O)c3cccc(c3)S(=O)(=O)Nc3nc(cc(-c4c(C)cccc4C)n3)OC[C@H]2CCC(C)C)cn1 [Compound 6, (11R)-6-(2,6-Dimethylphenyl)-11-isopentyl-12-[1-(2-methoxyethyl)pyrazol-4-yl]-2,2-dioxo-9-oxa-2λ^6-thia-3,5,12,19-tetrazatricyclo[12.3.1.14,8]nonadeca-1(18),4(19),5,7,14,16-hexaen-13-one]
- ring closure, yield after HPLC ([1]; from COCCn1cc(N[C@H](CCC(C)C)COc2cc(-c3c(C)cccc3C)nc(NS(=O)(=O)c3cccc(C(=O)O)c3)n2)cn1, CDMT/NMM, 48.0 h, 2 steps): 16%
- Ent. B Max Activity (%) (CFTR [2]; Table 10): +++ (+++ is >60%)
- EC50 (CFTR [2]; [4]): < 1000 nM

SMILES: Cc1cccc(C)c1-c1cc2nc(n1)NS(=O)(=O)c1cccc(c1)C(=O)N(c1cnn(C)c1)[C@H](CCC(C)C)CO2 [Compound 7, (11R)-6-(2,6-Dimethylphenyl)-11-isopentyl-12-(1-methylpyrazol-4-yl)-2,2-dioxo-9-oxa-2λ^6-thia-3,5,12,19-tetrazatricyclo[12.3.1.14,8]nonadeca-1(18),4(19),5,7,14,16-hexaen-13-one]
- ring closure, yield after HPLC ([1]; from Cc1cccc(C)c1-c1cc(OC[C@@H](CCC(C)C)Nc2cnn(C)c2)nc(NS(=O)(=O)c2cccc(C(=O)O)c2)n1, CDMT/NMM, 48.0 h, 2 steps): 19%
- Ent. B Max Activity (%) (CFTR [2]; Table 10): +++ (+++ is >60%)
- EC50 (CFTR [2]; [4]): < 1000 nM

SMILES: Cc1cc(F)cc(C)c1-c1cc2nc(n1)NS(=O)(=O)c1cccc(c1)C(=O)N(C1CC3(CC3)C1)[C@H](CC(C)C)CO2 [Compound 10, (11R)-6-(4-Fluoro-2,6-dimethyl-phenyl)-11-isobutyl-2,2-dioxo-12-spiro[2.3]hexan-5-yl-9-oxa-2λ^6-thia-3,5,12,19-tetrazatricyclo[12.3.1.14,8]nonadeca-1(18),4(19),5,7,14,16-hexaen-13-one]
- ring closure, yield after HPLC ([1]; from Cc1cc(F)cc(C)c1-c1cc(OC[C@@H](CC(C)C)NC2CC3(CC3)C2)nc(NS(=O)(=O)c2cccc(C(=O)O)c2)n1, HATU/TEA, 53.7 mM, 25.0 °C, 4.0 h): 48%
- Ent. B Max Activity (%) (CFTR [2]; Table 9): +++ (+++ is >60%)
- EC50 (CFTR [2]; Table 9, read-out: Ent. B EC50): < 1000 nM

SMILES: Cc1cccc(C)c1-c1cc2nc(n1)NS(=O)(=O)c1cccc(c1)C(=O)N(c1cnn(CC(N)=O)c1)[C@H](CC(C)(C)C)CO2 [Compound 426]
- EC50 (CFTR [3]): 1000 to 3000 nM
- HBE Max Activity (CFTR [3]): +++ (+++ is >60%)

SMILES: Cc1cccc(C)c1-c1cc2nc(n1)NS(=O)(=O)c1cccc(c1)C(=O)N(c1cnn(CC(=O)OC(C)(C)C)c1)[C@H](CC(C)(C)C)CO2 [Compound 427]
- EC50 (CFTR [3]): < 1000 nM
- HBE Max Activity (CFTR [3]): +++ (+++ is >60%)

SMILES: Cc1cccc(C)c1-c1cc2nc(n1)NS(=O)(=O)c1cccc(c1)C(=O)N(c1cnn(CC(=O)OC(C)(C)C)c1)[C@H](CC(C)C)CO2 [Compound 429]
- EC50 (CFTR [3]): < 1000 nM
- HBE Max Activity (CFTR [3]): +++ (+++ is >60%)

SMILES: Cc1cccc(C)c1-c1cc2nc(n1)NS(=O)(=O)c1cccc(c1)C(=O)N(C1CC3(CC(N4CCOCC4)C3)C1)[C@H](CC(C)(C)C)CO2 (stereo partly drawn) [Compound 433]
- EC50 (CFTR [3]): < 1000 nM
- HBE Max Activity (CFTR [3]): +++ (+++ is >60%)

SMILES: Cc1cccc(C)c1-c1cc2nc(n1)NS(=O)(=O)c1cccc(c1)C(=O)N(C1CC3(CCN(C)CC3)C1)[C@@H]1CN(C3CC4(CCCCC4)C3)C[C@H]1O2 (stereo partly drawn) [Compound 473]
- HBE Activity at 10 μM (CFTR [3]; single fixed concentration of 10 μM with 1 μM Ivacaftor): +++ (+++ is >60%)
